Source: PMC6941823, “A dispensable paralog of succinate dehydrogenase subunit C mediates standing resistance towards a subclass of SDHI fungicides in Zymoseptoria tritici” (PLoS Pathogens, 2019)
Like-named read-outs stand apart in the source and are kept apart here.

Legend:
[1] = target: SQR of 06STD024 (SDHC / altC) mitochondria (Zymoseptoria tritici, UniProt A0A1X7RQW2+F9X9V6+F9XH52+O42772); assay: Succinate-quinone (SQR) SDHI sensitivity assay on purified mitochondria, 06STD024; assay type: biochemical; conditions: for IC50: mitochondria of field isolate 06STD024, mean of three ± SD
Sequence of SQR of 06STD024 (SDHC / altC) mitochondria (A0A1X7RQW2 36-181): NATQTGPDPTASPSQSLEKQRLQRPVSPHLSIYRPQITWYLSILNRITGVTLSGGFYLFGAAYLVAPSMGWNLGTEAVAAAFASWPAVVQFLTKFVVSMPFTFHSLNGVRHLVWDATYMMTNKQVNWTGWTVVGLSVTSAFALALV
Sequence of SQR of 06STD024 (SDHC / altC) mitochondria (O42772 19-297): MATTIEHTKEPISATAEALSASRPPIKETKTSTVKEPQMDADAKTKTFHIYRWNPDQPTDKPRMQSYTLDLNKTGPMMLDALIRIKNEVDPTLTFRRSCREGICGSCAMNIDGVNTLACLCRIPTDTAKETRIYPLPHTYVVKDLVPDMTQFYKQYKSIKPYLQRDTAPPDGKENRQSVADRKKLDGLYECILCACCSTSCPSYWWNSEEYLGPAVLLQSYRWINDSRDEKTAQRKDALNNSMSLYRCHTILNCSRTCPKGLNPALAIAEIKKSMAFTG
Sequence of SQR of 06STD024 (SDHC / altC) mitochondria (F9X9V6 1-193): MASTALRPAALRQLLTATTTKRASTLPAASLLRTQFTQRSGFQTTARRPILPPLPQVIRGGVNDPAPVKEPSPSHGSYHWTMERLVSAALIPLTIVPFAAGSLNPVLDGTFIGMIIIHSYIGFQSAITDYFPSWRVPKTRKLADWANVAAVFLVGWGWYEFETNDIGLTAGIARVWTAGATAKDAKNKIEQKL
Sequence of SQR of 06STD024 (SDHC / altC) mitochondria (F9XH52 44-187): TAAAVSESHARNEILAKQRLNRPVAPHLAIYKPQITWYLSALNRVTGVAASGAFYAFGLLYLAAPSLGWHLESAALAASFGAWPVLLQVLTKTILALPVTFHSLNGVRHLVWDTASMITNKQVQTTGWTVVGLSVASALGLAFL
Sequence of SQR of 06STD024 (SDHC / altC) mitochondria (F9WWR1 29-643 partner): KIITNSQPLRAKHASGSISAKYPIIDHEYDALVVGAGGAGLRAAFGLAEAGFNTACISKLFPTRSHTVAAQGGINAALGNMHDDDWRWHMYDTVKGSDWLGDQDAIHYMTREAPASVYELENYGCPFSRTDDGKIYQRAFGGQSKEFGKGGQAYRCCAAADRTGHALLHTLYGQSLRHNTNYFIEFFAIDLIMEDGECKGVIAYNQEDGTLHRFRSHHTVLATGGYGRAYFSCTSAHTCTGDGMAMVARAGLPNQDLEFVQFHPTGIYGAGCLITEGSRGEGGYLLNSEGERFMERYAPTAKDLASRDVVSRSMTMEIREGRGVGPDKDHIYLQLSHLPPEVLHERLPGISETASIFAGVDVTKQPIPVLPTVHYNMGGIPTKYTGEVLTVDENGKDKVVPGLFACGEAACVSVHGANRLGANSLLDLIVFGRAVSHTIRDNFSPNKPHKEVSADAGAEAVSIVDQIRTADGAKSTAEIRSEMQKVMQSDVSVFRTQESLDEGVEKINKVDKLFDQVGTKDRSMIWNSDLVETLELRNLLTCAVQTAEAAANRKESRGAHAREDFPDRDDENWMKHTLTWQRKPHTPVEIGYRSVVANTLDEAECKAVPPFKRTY
Procedure: (§1) Succinate-ubiquinone oxidoreductase (SQR) inhibition assays were performed on mitochondrial extracts from a panel of strains that were (i) either carrying a unique C-subunit encoding gene (ZtSDHC1, ZtSDHC1_A84I or Zt-SDHC3), or (ii) carrying two C-subunit encoding genes ZtSDHC1 and ZtSDHC3 (Table 1).
(§2) Biomass production, mitochondrial extraction and purification were performed as described in [14]. Succinate: ubiquinone/DCPIP sensitivity tests were performed as described in [14] with minor modification.

[2] = system: Zymoseptoria tritici field and genetically modified strains; assay: Liquid culture assay for fungicide sensitivity determination; assay type: cell-based; conditions: liquid culture sensitivity
Procedure: Sensitivity towards commercial fungicides was determined for a set of 99 SHA-SDHI-naïve Z. tritici field isolates sampled in Europe between 2006 and 2009. The EC50 of these isolates was determined in liquid growth assays and the data obtained compared for each possible pair of SDHI fungicides (cross-resistance (XR) plots, Fig 1). […] Comparative succinate-quinone reductase (SQR) enzyme inhibition tests were performed with mitochondria extracted from a panel of SHA-SDHIs tolerant and sensitive isolates.
In order to characterize in more depth the mechanisms driving sensitivity differences across the isolates, a subset of eight isolates carrying the ZtSDHC3 gene was analyzed for their sensitivity to SDHIs, alt-SDHC expression and splicing patterns. Liquid culture growth sensitivity tests were performed to determine EC50s for this set of isolates towards a wide range of commercial and research SDHIs (S5 Table).
Pre-culture of the inoculum and fungicide sensitivity tests were performed following previously described procedures. Different ranges of inhibitor concentrations were used for population monitoring and for the detailed phenotyping of a selected set of individual field isolates and genetically modified strains. For fungicide sensitivity monitoring of European field populations, final inhibitors concentrations were between 100 mg.L^-1 and 0.0001 mg.L^-1 with uniform 10x dilution steps (7 inhibitor concentrations + DMSO control). For refined sensitivity analysis of a smaller panel of isolates final inhibitor concentrations ranged between 0.5 mM and 0.47 nM with uniform 4x dilution factor steps (11 inhibitor concentrations+ DMSO control).

[3] = target: altC-SQR (altC) of D024 SDHC1 KO mitochondria (Zymoseptoria tritici, UniProt A0A1X7RQW2+F9X9V6+O42772); assay: Succinate-quinone (SQR) SDHI sensitivity assay on purified mitochondria, 06STD024 SDHC1 KO; assay type: biochemical; conditions: for IC50: mitochondria of 06STD024 ZtSDHC1 deletion mutant (pure altC-SQR), mean of three ± SD
Sequence of altC-SQR (altC) of D024 SDHC1 KO mitochondria (A0A1X7RQW2 36-181): as the sequence (A0A1X7RQW2 36-181) above
Sequence of altC-SQR (altC) of D024 SDHC1 KO mitochondria (O42772 20-297): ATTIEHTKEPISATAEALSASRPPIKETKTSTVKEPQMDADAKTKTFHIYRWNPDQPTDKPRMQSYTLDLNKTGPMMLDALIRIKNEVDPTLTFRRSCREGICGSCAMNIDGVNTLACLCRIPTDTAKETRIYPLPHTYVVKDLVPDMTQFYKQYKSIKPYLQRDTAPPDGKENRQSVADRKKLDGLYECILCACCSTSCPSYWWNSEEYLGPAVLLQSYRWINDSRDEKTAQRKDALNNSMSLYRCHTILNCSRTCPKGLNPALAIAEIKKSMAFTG
Sequence of altC-SQR (altC) of D024 SDHC1 KO mitochondria (F9X9V6 1-193): as the sequence (F9X9V6 1-193) above
Sequence of altC-SQR (altC) of D024 SDHC1 KO mitochondria (F9WWR1 41-643 partner): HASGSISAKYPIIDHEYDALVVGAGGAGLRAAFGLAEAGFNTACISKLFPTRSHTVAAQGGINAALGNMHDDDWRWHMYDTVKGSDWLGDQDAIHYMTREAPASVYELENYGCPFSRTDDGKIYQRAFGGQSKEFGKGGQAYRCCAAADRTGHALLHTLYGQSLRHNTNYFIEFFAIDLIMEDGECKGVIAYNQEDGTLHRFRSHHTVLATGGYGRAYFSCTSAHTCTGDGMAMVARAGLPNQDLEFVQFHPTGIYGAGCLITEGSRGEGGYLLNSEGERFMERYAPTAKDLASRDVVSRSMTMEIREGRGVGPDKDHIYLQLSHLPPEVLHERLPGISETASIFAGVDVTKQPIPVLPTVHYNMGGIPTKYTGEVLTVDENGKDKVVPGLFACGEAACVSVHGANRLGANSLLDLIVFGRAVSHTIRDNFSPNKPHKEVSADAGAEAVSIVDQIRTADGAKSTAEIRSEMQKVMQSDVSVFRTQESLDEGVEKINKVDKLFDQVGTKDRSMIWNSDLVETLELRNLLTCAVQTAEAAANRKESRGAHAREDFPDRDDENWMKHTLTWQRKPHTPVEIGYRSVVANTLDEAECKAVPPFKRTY
Procedure: as §1, §2

[4] = target: WT-SQR (SDHC), IPO323 mitochondria (Zymoseptoria tritici, UniProt F9X9V6+F9XH52+O42772); assay: Succinate-quinone (SQR) SDHI sensitivity assay on purified mitochondria, IPO323; assay type: biochemical
Procedure: as §1
(§3) Biomass production, mitochondrial extraction and purification were performed as described in [14]. Succinate: ubiquinone/DCPIP sensitivity tests were performed as described in [14] with minor modification. The different mitochondrial suspensions were adjusted to similar initial velocity (1 OD595nm hour^-1) and inhibitor concentrations ranged between 0.047nM and 50μM with uniform 4x dilution steps (11 concentrations + DMSO control). Calculated absorbance slopes (OD/min) were used for IC50 calculations using GraphPad Prism 6.07 software non-linear curve fitting against log inhibitor concentrations.

[5] = system: SQR (SDHC / altC) of IPO323 pTet::SDHC3 transformant, induced; assay: Succinate-quinone (SQR) SDHI sensitivity assay on purified mitochondria, IPO323 pTet::SDHC3 induced; assay type: biochemical, Zymoseptoria tritici; conditions: for IC50: IPO323 pTet::SDHC3 transformant grown in the absence of doxycycline, mean of three ± SD
Procedure: as §1, §2

[6] = target: SQR (SDHC / altC) of IPO323 pTet::SDHC3 transformant, repressed (Zymoseptoria tritici, UniProt A0A1X7RQW2+F9X9V6+F9XH52+O42772); assay: Succinate-quinone (SQR) SDHI sensitivity assay on purified mitochondria, IPO323 pTet::SDHC3 repressed; assay type: biochemical; conditions: for IC50: IPO323 pTet::SDHC3 transformant grown in presence of 30 mg.L^-1 doxycycline, mean of three ± SD
Procedure: as §1, §2

[7] = target: SQR (SDHC) of D024 SDHC3 KO mitochondria (Zymoseptoria tritici, UniProt F9X9V6+F9XH52+O42772); assay: Succinate-quinone (SQR) SDHI sensitivity assay on purified mitochondria, 06STD024 SDHC3 KO; assay type: biochemical; conditions: for RF (resistance factor), D024 SDHC3 KO (SDHC): IC50 ratio compared to IPO323 values; for IC50: mitochondria of 06STD024 ZtSDHC3 deletion mutant, mean of three ± SD
Sequence of SQR (SDHC) of D024 SDHC3 KO mitochondria (F9XH52 44-187): as the sequence (F9XH52 44-187) above
Sequence of SQR (SDHC) of D024 SDHC3 KO mitochondria (O42772 19-297): as the sequence (O42772 19-297) above
Sequence of SQR (SDHC) of D024 SDHC3 KO mitochondria (F9X9V6 1-193): as the sequence (F9X9V6 1-193) above
Sequence of SQR (SDHC) of D024 SDHC3 KO mitochondria (F9WWR1 29-643 partner): as the sequence (F9WWR1 29-643 partner) above
Procedure: as §1, §3

[8] = target: C_A84I-SQR (SDHC_A84I), IPO323_Flu21 mitochondria (Zymoseptoria tritici, UniProt F9X9V6+F9XH52+O42772, A84I); assay: Succinate-quinone (SQR) SDHI sensitivity assay on purified mitochondria, IPO323_Flu21; assay type: biochemical
Procedure: as §1, §3

[9] = IC50 ratio compared to IPO323 values

## C[C@@H](Cc1ccc(Cl)cc1Cl)NC(=O)c1cn(C)nc1C(F)F [Compound 2]
[1]
  IC50: 415 ± 68 nM
[2]; Zymoseptoria tritici, read-out: EC50 (nM) Mean, strain 06STD024
  EC50: 2320 nM
[2]; Zymoseptoria tritici, read-out: EC50 (nM) Mean, strain 07STGB009
  EC50: 4000 nM
[2]; Zymoseptoria tritici, read-out: EC50 (nM) Mean, strain 09STD041
  EC50: 702 nM
[2]; Zymoseptoria tritici, read-out: EC50 (nM) Mean, strain 09STD053
  EC50: 367 nM
[2]; Zymoseptoria tritici, read-out: EC50 (nM) Mean, strain 09STF011
  EC50: 606 nM
[2]; Zymoseptoria tritici, read-out: EC50 (nM) Mean, strain 09STF037
  EC50: 178 nM
[2]; Zymoseptoria tritici, read-out: EC50 (nM) Mean, strain 09STF112
  EC50: 786 nM
[2]; Zymoseptoria tritici, read-out: EC50 (nM) Mean, strain 09STIR20.3
  EC50: 259 nM
[2]; Zymoseptoria tritici, read-out: EC50 (nM) Mean, strain Flu21 (SDHC1_A84I)
  EC50: 5450 nM
[2]; Zymoseptoria tritici, read-out: EC50 (nM) Mean, strain IPO323
  EC50: 96.4 nM
[2]; Zymoseptoria tritici, read-out: EC50 (nM) Mean, strain IPO94269
  EC50: 161 nM
[2]; Zymoseptoria tritici, read-out: EC50 (nM) Mean, strain KO_SDHC1_T1
  EC50: 10400 nM
[2]; Zymoseptoria tritici, read-out: EC50 (nM) Mean, strain KO_SDHC1_T3
  EC50: 8310 nM
[2]; Zymoseptoria tritici, read-out: EC50 (nM) Mean, strain KO_SDHC3_T4
  EC50: 299 nM
[2]; Zymoseptoria tritici, read-out: EC50 (nM) Mean, strain KO_SDHC3_T13
  EC50: 309 nM
[2]; Zymoseptoria tritici, read-out: EC50 (nM) Mean, strain pTet::SDHC3_I78A_T1
  EC50: 168 nM
[2]; Zymoseptoria tritici, read-out: EC50 (nM) Mean, strain pTet::SDHC3_I78A_T5
  EC50: 332 nM
[2]; Zymoseptoria tritici, read-out: EC50 (nM) Mean, strain pTet::SDHC3_I78A_T15
  EC50: 150 nM
[2]; Zymoseptoria tritici, read-out: EC50 (nM) Mean, strain pTet::SDHC3_I78A_T35
  EC50: 100 nM
[2]; Zymoseptoria tritici, read-out: EC50 (nM) Mean, strain pTet::SDHC3_T1
  EC50: 6140 nM
[2]; Zymoseptoria tritici, read-out: EC50 (nM) Mean, strain pTet::SDHC3_T2
  EC50: 5160 nM
[2]; Zymoseptoria tritici, read-out: EC50 (nM) Mean, strain pTet::SDHC3_T3
  EC50: 5660 nM
[2]; Zymoseptoria tritici, read-out: EC50 (nM) Mean, strain pTet::SDHC3_T7
  EC50: 7400 nM
[3]
  IC50: 358 ± 63.4 nM
[4]
  IC50: 5.3 ± 0.6 nM
[5]
  IC50: 204 ± 20.7 nM
[6]
  IC50: 15.6 ± 3.9 nM
[7]
  RF (resistance factor), D024 SDHC3 KO (SDHC): 0.7
  IC50: 3.7 ± 0.5 nM

## CC(C)C1C2CCC1c1c(NC(=O)c3cn(C)nc3C(F)F)cccc12 (stereo not drawn) [Isopyrazam]
[1]; [9]
  RF (resistance factor), 06STD024 (SDHC / altC): 3.3
[1]
  IC50: 2.6 ± 0.6 nM
[2]; strain 06STD024, read-out: EC50 (nM) Mean
  EC50: 108 nM
[2]; strain 07STGB009, read-out: EC50 (nM) Mean
  EC50: 75.5 nM
[2]; strain 09STD041, read-out: EC50 (nM) Mean
  EC50: 116 nM
[2]; strain 09STD053, read-out: EC50 (nM) Mean
  EC50: 56 nM
[2]; strain 09STF011, read-out: EC50 (nM) Mean
  EC50: 109 nM
[2]; strain 09STF037, read-out: EC50 (nM) Mean
  EC50: 46.1 nM
[2]; strain 09STF112, read-out: EC50 (nM) Mean
  EC50: 66.2 nM
[2]; strain 09STIR20.3, read-out: EC50 (nM) Mean
  EC50: 112 nM
[2]; strain Flu21 (SDHC1_A84I), read-out: EC50 (nM) Mean
  EC50: 785 nM
[2]; strain IPO323, read-out: EC50 (nM) Mean
  EC50: 46 nM
[2]; strain IPO94269, read-out: EC50 (nM) Mean
  EC50: 72.8 nM
[2]; strain KO_SDHC1_T1, read-out: EC50 (nM) Mean
  EC50: 332 nM
[2]; strain KO_SDHC1_T3, read-out: EC50 (nM) Mean
  EC50: 293 nM
[2]; strain KO_SDHC3_T4, read-out: EC50 (nM) Mean
  EC50: 83.7 nM
[2]; strain KO_SDHC3_T13, read-out: EC50 (nM) Mean
  EC50: 96.7 nM
[2]; strain pTet::SDHC3_I78A_T1, read-out: EC50 (nM) Mean
  EC50: 60.4 nM
[2]; strain pTet::SDHC3_I78A_T5, read-out: EC50 (nM) Mean
  EC50: 120 nM
[2]; strain pTet::SDHC3_I78A_T15, read-out: EC50 (nM) Mean
  EC50: 81.1 nM
[2]; strain pTet::SDHC3_I78A_T35, read-out: EC50 (nM) Mean
  EC50: 17 nM
[2]; strain pTet::SDHC3_T1, read-out: EC50 (nM) Mean
  EC50: 195 nM
[2]; strain pTet::SDHC3_T2, read-out: EC50 (nM) Mean
  EC50: 284 nM
[2]; strain pTet::SDHC3_T3, read-out: EC50 (nM) Mean
  EC50: 175 nM
[2]; strain pTet::SDHC3_T7, read-out: EC50 (nM) Mean
  EC50: 233 nM
[3]; [9]
  RF (resistance factor), D024 SDHC1 KO (altC): 2.9
[3]
  IC50: 2.4 ± 0.5 nM
[8]; [9]
  RF (resistance factor), IPO323_Flu21 (SDHC_A84I): 6.4
[8]; mitochondria of UV mutant IPO323_Flu21, mean of three ± SD
  IC50: 5.2 ± 2.6 nM
[4]; mitochondria of IPO323, mean of three determinations ± SD, read-out: Succinate-quinone IC50, IPO323 (SDHC)
  IC50: 0.8 ± 0.1 nM
[5]; [9]
  RF (resistance factor), pTet Induced (SDHC / altC): 2.1
[5]
  IC50: 1.7 ± 0.4 nM
[6]; [9]
  RF (resistance factor), pTet Repressed (SDHC / altC): 1.5
[6]
  IC50: 1.2 ± 0.3 nM
[7]
  RF (resistance factor), D024 SDHC3 KO (SDHC): 0.7
  IC50: 0.6 ± 0.2 nM
